What all share (assay type): in vivo
For data set [1], the system named is Lolium perenne (LOLPE). The experiment in a line: Example A glasshouse herbicide test, pre-emergence, LOLPE. Conditions: Lolium perenne, pre-emergence, 312 h, Rate 250 g/ha, sprayed after cultivation for one day, evaluated after 13 days, read-out: Pre-Emergence Activity LOLPE (100=total damage to plant; 0=no damage to plant). The method in brief: (§1)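 Glasshouse pots, standard soil; spray at day 1 (pre-em.) or day 8 (post-em.); acetone/water 50:50 + 0.5% Tween 20 vehicle; 24/16° C., 14 h light, 65% RH, watered twice daily; visual damage rating at 13 d, 100 = total damage, 0 = none.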

The subject of data set [2] is Avena fatua (AVEFA). Kind of data set: Example A glasshouse herbicide test, post-emergence, AVEFA. Conditions: Avena fatua, post-emergence, 312 h, Rate 250 g/ha, sprayed after 8 days cultivation, evaluated after 13 days, read-out: Post-Emergence Activity AVEFA (100=total damage to plant; 0=no damage to plant). The method in brief:
as §1

For data set [3], the system named is Lolium perenne (LOLPE). Kind of data set: Example A glasshouse herbicide test, post-emergence, LOLPE. Conditions: Lolium perenne, post-emergence, 312 h, Rate 250 g/ha, sprayed after 8 days cultivation, evaluated after 13 days, read-out: Post-Emergence Activity LOLPE (100=total damage to plant; 0=no damage to plant). In outline: as §1
Data set [4] relates to Echinochloa crus-galli (ECHCG). Kind of data set: Example A glasshouse herbicide test, post-emergence, ECHCG. Particulars: Echinochloa crus-galli, post-emergence, 312 h, Rate 250 g/ha, sprayed after 8 days cultivation, evaluated after 13 days, read-out: Post-Emergence Activity ECHCG (100=total damage to plant; 0=no damage to plant). In outline: as §1
Data set [5] deals with Alopecurus myosuroides (ALOMY). Kind of data set: Example A glasshouse herbicide test, post-emergence, ALOMY. Conditions: Alopecurus myosuroides, post-emergence, 312 h, Rate 250 g/ha, sprayed after 8 days cultivation, evaluated after 13 days, read-out: Post-Emergence Activity ALOMY (100=total damage to plant; 0=no damage to plant). In outline:
as §1

Data set [6] relates to Winter Wheat variety 'Hereward'. The experiment in a line: Example B crop damage test, post-emergence, wheat seed treated with safener cloquintocet mexyl. Conditions: Rate 250 g/ha; post-emergence spray 8 days after sowing; seed treated with cloquintocet mexyl 0.5 g/kg dry seed; evaluated after 13 days. The method, then: Seeds of the Winter Wheat variety ‘Hereward’ were seed treated with a wettable powder formulation of the cereal herbicide safener, cloquintocet mexyl, at a rate of 0.5 grams per kilogram of dry seed prior to the initiation of glasshouse testing. One seed was sown per 1.5 inch plastic pot into a sandy loam soil at a depth of 1 cm, 8 days prior to application of the test compounds and was watered and grown under controlled conditions in a glasshouse (at 24/16° C., day/night; 14 hours light; 65% humidity). The plants were sprayed post-emergence with an aqueous spray solution derived from the formulation of the technical active ingredient in acetone/water (50:50) solution containing 0.5% Tween 20 (polyoxyethelyene sorbitan monolaurate, CAS RN 9005-64-5).
(§2) The test plants were then grown in a glasshouse under controlled conditions in a glasshouse (at 24/16° C., day/night; 14 hours light; 65% humidity) and watered twice daily. After 13 days for pre and post-emergence, the test was evaluated (100=total damage to plant; 0=no damage to plant).

Data set [7] deals with Avena fatua (AVEFA). Kind of data set: Example A glasshouse herbicide test, pre-emergence, AVEFA. Conditions: Avena fatua, pre-emergence, 312 h, Rate 250 g/ha, sprayed after cultivation for one day, evaluated after 13 days, read-out: Pre-Emergence Activity AVEFA (100=total damage to plant; 0=no damage to plant). In outline: as §1
Data set [8] deals with Alopecurus myosuroides (ALOMY). Kind of data set: Example A glasshouse herbicide test, pre-emergence, ALOMY. Particulars: Alopecurus myosuroides, pre-emergence, 312 h, Rate 250 g/ha, sprayed after cultivation for one day, evaluated after 13 days, read-out: Pre-Emergence Activity ALOMY (100=total damage to plant; 0=no damage to plant). In outline: as §1
In data set [9] the test system is Echinochloa crus-galli (ECHCG). Kind of data set: Example A glasshouse herbicide test, pre-emergence, ECHCG. Conditions: Echinochloa crus-galli, pre-emergence, 312 h, Rate 250 g/ha, sprayed after cultivation for one day, evaluated after 13 days, read-out: Pre-Emergence Activity ECHCG (100=total damage to plant; 0=no damage to plant). In outline: as §1
Data set [10] concerns Winter Wheat variety 'Hereward'. The experiment in a line: Example B crop damage test, post-emergence, unsafened wheat. Conditions: Rate 250 g/ha; post-emergence spray after 8 days cultivation; no safener; evaluated after 13 days. The method, then: Seeds of the Winter Wheat variety ‘Hereward’ were sown in standard soil in pots. After 8 days cultivation under controlled conditions in a glasshouse (at 24/16° C., day/night; 14 hours light; 65% humidity), the plants were sprayed post-emergence with an aqueous spray solution derived from the formulation of the technical active ingredient in acetone/water (50:50) solution containing 0.5% Tween 20 (polyoxyethelyene sorbitan monolaurate, CAS RN 9005-64-5).
as §2

`Cc1cc(C)c(C2C(=O)C/C(=C\C3CCCC(C)C3)C2=O)c(C)c1` (centres unmarked) [Compound A30]: the pest or weed control at 250 g/ha in the data set with Lolium perenne (LOLPE) [1] was found to be 100%; in the data set with Avena fatua (AVEFA) [2], 70%; with Lolium perenne (LOLPE) [3], 60%; in data set [4], 80%; in data set [5] it was 60%; in the data set on Avena fatua (AVEFA) [7], 70%. In addition, the pest or weed control at 250 g/ha was found to be 80% in data set [8] and 100% in data set [9]. Further, in data set [6], the “Winter Wheat (Hereward) + cloquintocet mexyl damage (100=total damage to plant; 0=no damage to plant)” value is reported as 0. Besides, the “Winter Wheat (Hereward) damage (100=total damage to plant; 0=no damage to plant)” value in data set [10] stood at 50.

With `Cc1cc(C)c(C2C(=O)C/C(=C\C3CCCC4CCCCC34)C2=O)c(C)c1` (centres unmarked) [Compound A31], the pest or weed control at 250 g/ha came to 90% with Lolium perenne (LOLPE) [1]; 20% with Avena fatua (AVEFA) [2]; 70% in the data set on Lolium perenne (LOLPE) [3]; 80% in data set [4]; 20% in [5]; 20% with Avena fatua (AVEFA) [7]. Further, the pest or weed control at 250 g/ha came out at 40% in [8] and 90% in [9]. The “Winter Wheat (Hereward) + cloquintocet mexyl damage (100=total damage to plant; 0=no damage to plant)” value in [6] came out at 0. For the same compound, the “Winter Wheat (Hereward) damage (100=total damage to plant; 0=no damage to plant)” value in data set [10] is 20.

Turning to `Cc1cc(C)c(C2C(=O)CC(CC3CCCC(C)C3)C2=O)c(C)c1` (centres unmarked) [Compound A32], the pest or weed control at 250 g/ha with Lolium perenne (LOLPE) [1] amounted to 90%; in the data set on Avena fatua (AVEFA) [2], 90%; in the data set with Lolium perenne (LOLPE) [3], 100%; in data set [4], 100%; in data set [5], 70%; in the data set with Avena fatua (AVEFA) [7], 50%. Also, the values for the pest or weed control at 250 g/ha in data set [8] and in [9] were 70% and 100%, respectively. Besides, in data set [6], the “Winter Wheat (Hereward) + cloquintocet mexyl damage (100=total damage to plant; 0=no damage to plant)” value stood at 0. In [10], the “Winter Wheat (Hereward) damage (100=total damage to plant; 0=no damage to plant)” value is 30.

As to `Cc1cc(C)c(C2C(=O)CC(CC3CCC(C)CC3)C2=O)c(C)c1` (centres unmarked) [Compound A33], the pest or weed control at 250 g/ha was 0% in the data set with Lolium perenne (LOLPE) [1]; 70% in the data set with Avena fatua (AVEFA) [2]; 100% with Lolium perenne (LOLPE) [3]; 60% in data set [4]; 30% in [5]; 50% in the data set with Avena fatua (AVEFA) [7]. In addition, the pest or weed control at 250 g/ha turned out to be 30% in data set [8] and 100% in data set [9]. Further, in data set [6], the “Winter Wheat (Hereward) + cloquintocet mexyl damage (100=total damage to plant; 0=no damage to plant)” value turned out to be 0. For the same compound, the “Winter Wheat (Hereward) damage (100=total damage to plant; 0=no damage to plant)” value in data set [10] worked out at 40.

For `Cc1cc(C)c(C2C(=O)CC(CC3CC(C)CCC3C(C)C)C2=O)c(C)c1` (centres unmarked) [Compound A34], the pest or weed control at 250 g/ha in the data set on Lolium perenne (LOLPE) [1] was found to be 0%; with Avena fatua (AVEFA) [2], 10%; in the data set on Lolium perenne (LOLPE) [3], 30%; in [4] it was 10%; in data set [5] it was 20%; with Avena fatua (AVEFA) [7] it was 0%. Further, the results for the pest or weed control at 250 g/ha in data set [8] and in data set [9] were 10% and 60%, respectively. Also, in [6], the “Winter Wheat (Hereward) + cloquintocet mexyl damage (100=total damage to plant; 0=no damage to plant)” value is 10. Also, the “Winter Wheat (Hereward) damage (100=total damage to plant; 0=no damage to plant)” value in data set [10] is 20.

Turning to `Cc1cc(C)c(C2C(=O)CC(CC3CCCCCC3)C2=O)c(C)c1` (centres unmarked) [Compound A35], the pest or weed control at 250 g/ha was 30% in the data set on Lolium perenne (LOLPE) [1]; 20% in the data set on Avena fatua (AVEFA) [2]; 80% with Lolium perenne (LOLPE) [3]; 80% in data set [4]; 50% in data set [5]; 50% with Avena fatua (AVEFA) [7]. For the same compound, the pest or weed control at 250 g/ha in data set [8] is 50%; in data set [9] it was 100%. Also, the “Winter Wheat (Hereward) + cloquintocet mexyl damage (100=total damage to plant; 0=no damage to plant)” value in [6] came to 0. Also, the “Winter Wheat (Hereward) damage (100=total damage to plant; 0=no damage to plant)” value in [10] stood at 20.

Consider `Cc1cc(C)c(C2C(=O)CC(CC3CCCC4CCCCC43)C2=O)c(C)c1` (centres unmarked) [Compound A36], for which the pest or weed control at 250 g/ha in the data set on Lolium perenne (LOLPE) [1] amounted to 10%; in the data set on Avena fatua (AVEFA) [2] it was 90%; in the data set on Lolium perenne (LOLPE) [3] it was 70%; in [4] it was 70%; in data set [5], 40%; in the data set on Avena fatua (AVEFA) [7] it was 50%. In addition, the pest or weed control at 250 g/ha in data set [8] and in data set [9] was 70% in each case. Besides, the “Winter Wheat (Hereward) + cloquintocet mexyl damage (100=total damage to plant; 0=no damage to plant)” value in data set [6] came to 0. Further, the “Winter Wheat (Hereward) damage (100=total damage to plant; 0=no damage to plant)” value in data set [10] turned out to be 20.

For the compound `COC1CCC(CC2CC(=O)C(c3c(C)cc(C)cc3C)C2=O)CC1` (centres unmarked) [Compound A38, 4-(4-Methoxy-cyclohexylmethyl)-2-(2,4,6-trimethyl-phenyl)-cyclopentane-1,3-dione], the pest or weed control at 250 g/ha with Lolium perenne (LOLPE) [1] amounted to 100%; with Avena fatua (AVEFA) [2], 100%; in the data set with Lolium perenne (LOLPE) [3], 100%; in data set [4], 100%; in [5], 100%; with Avena fatua (AVEFA) [7], 60%. In addition, the pest or weed control at 250 g/ha was 90% in data set [8] and 100% in data set [9]. Further, in [6], the “Winter Wheat (Hereward) + cloquintocet mexyl damage (100=total damage to plant; 0=no damage to plant)” value came out at 50. Besides, in [10], the “Winter Wheat (Hereward) damage (100=total damage to plant; 0=no damage to plant)” value came to 70.

With `Cc1cc(C)c(C2=C(OC(=O)C(C)(C)C)C/C(=C\C3CCCCC3)C2=O)c(C)c1` [Compound B1], the pest or weed control at 250 g/ha in the data set on Lolium perenne (LOLPE) [1] amounted to 80%; with Avena fatua (AVEFA) [2], 10%; in the data set on Lolium perenne (LOLPE) [3], 70%; in data set [4] it was 30%; in data set [5], 50%; in the data set on Avena fatua (AVEFA) [7], 20%. The pest or weed control at 250 g/ha in data set [8] came out at 70%; in data set [9], 100%. Besides, the “Winter Wheat (Hereward) + cloquintocet mexyl damage (100=total damage to plant; 0=no damage to plant)” value in data set [6] was determined as 0. Moreover, the “Winter Wheat (Hereward) damage (100=total damage to plant; 0=no damage to plant)” value in data set [10] came to 10.

As for `Cc1cc(C)c(C2=C(OC(=O)C(C)(C)C)CC(CC3CCCCC3)C2=O)c(C)c1` (centres unmarked) [Compound B2], the pest or weed control at 250 g/ha with Lolium perenne (LOLPE) [1] was determined as 100%; in the data set with Avena fatua (AVEFA) [2], 80%; with Lolium perenne (LOLPE) [3] it was 90%; in data set [4], 60%; in data set [5] it was 80%; in the data set with Avena fatua (AVEFA) [7], 0%. The pest or weed control at 250 g/ha is 30% in data set [8] and 100% in data set [9]. In addition, the “Winter Wheat (Hereward) + cloquintocet mexyl damage (100=total damage to plant; 0=no damage to plant)” value in data set [6] amounted to 0. In addition, the “Winter Wheat (Hereward) damage (100=total damage to plant; 0=no damage to plant)” value in data set [10] was 70.

`Cc1cc(C)c(C2=C(OC(=O)C(C)(C)C)C(CC3CCC(=O)CC3)CC2=O)c(C)c1` (centres unmarked) [Compound B3]: the pest or weed control at 250 g/ha in the data set with Lolium perenne (LOLPE) [1] came to 90%; with Avena fatua (AVEFA) [2], 90%; in the data set with Lolium perenne (LOLPE) [3], 90%; in data set [4], 90%; in data set [5], 70%; in the data set on Avena fatua (AVEFA) [7] it was 50%. Also, the values for the pest or weed control at 250 g/ha in [8] and in data set [9] were 70% and 50%, respectively. Besides, the “Winter Wheat (Hereward) + cloquintocet mexyl damage (100=total damage to plant; 0=no damage to plant)” value in data set [6] was determined as 30. Moreover, in data set [10], the “Winter Wheat (Hereward) damage (100=total damage to plant; 0=no damage to plant)” value was 40.

(Values after US8791303B2, “Herbicides” (Syngenta Limited, priority 2009, dated 2014).)
